Key:
[1] = biological target: T1, human sphingosine-1-phosphate receptor 1 (S1P1) (Homo sapiens (Human), UniProt P21453); test: Inhibition of cAMP production (HTRF cAMP HiRange), S1P1 CHO-K1 cells; type: cell-based; conditions: for Emax: CHO-K1, efficacy (SPAN) normalized to fingolimod, read-out: hS1P1 cAMP SPAN; for hS1P1 cAMP pEC50: inhibition of cAMP production, S1P1 CHO-K1 cells
In short: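 CHO-K1 cells stably co-expressing human S1P1 (C-terminal Prolink tag) and EA-β-arrestin2 were grown in AssayComplete Media 6 at 37° C. and 5% CO2, plated, and incubated overnight. Agonist-driven inhibition of intracellular cAMP was read by TR-FRET with the HTRF cAMP HiRange kit on a PheraStar reader. Potency is pEC50, and efficacy (SPAN) is normalized to fingolimod.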
Target sequence in this assay (P21453 whole entry, looked up): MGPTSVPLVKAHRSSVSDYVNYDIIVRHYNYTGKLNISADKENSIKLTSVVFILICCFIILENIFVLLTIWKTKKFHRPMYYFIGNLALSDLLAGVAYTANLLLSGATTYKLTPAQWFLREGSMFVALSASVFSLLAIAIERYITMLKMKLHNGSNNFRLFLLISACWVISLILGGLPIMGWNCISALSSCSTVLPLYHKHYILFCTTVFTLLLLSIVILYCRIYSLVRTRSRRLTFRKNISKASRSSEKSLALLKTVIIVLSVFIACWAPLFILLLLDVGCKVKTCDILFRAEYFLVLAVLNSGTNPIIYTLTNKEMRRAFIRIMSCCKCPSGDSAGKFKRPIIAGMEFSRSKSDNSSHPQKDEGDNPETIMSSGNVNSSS

[2] = biological target: T1, human sphingosine-1-phosphate receptor 1 (S1P1); test: β-Arrestin2 recruitment assay (PathHunter), S1P1 CHO-K1 cells; type: cell-based; conditions: for Emax: CHO-K1, efficacy (SPAN) normalized to fingolimod, read-out: hS1P1 B-arrestin2 SPAN; for hS1P1 B-arrestin2 pEC50: β-arrestin2 recruitment, S1P1 CHO-K1 cells
In short: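 Enzyme-fragment complementation read-out: agonist-driven β-arrestin2 binding to ProLink-tagged human S1P1 in stable CHO-K1 cells restores β-galactosidase, measured 1 h at room temperature after a 60 min 37° C. compound incubation. Potency as pEC50, efficacy relative to fingolimod (SPAN).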
Target sequence in this assay (P21453 whole entry, looked up): as above
Target sequence in this assay (P32121 whole entry partner, looked up): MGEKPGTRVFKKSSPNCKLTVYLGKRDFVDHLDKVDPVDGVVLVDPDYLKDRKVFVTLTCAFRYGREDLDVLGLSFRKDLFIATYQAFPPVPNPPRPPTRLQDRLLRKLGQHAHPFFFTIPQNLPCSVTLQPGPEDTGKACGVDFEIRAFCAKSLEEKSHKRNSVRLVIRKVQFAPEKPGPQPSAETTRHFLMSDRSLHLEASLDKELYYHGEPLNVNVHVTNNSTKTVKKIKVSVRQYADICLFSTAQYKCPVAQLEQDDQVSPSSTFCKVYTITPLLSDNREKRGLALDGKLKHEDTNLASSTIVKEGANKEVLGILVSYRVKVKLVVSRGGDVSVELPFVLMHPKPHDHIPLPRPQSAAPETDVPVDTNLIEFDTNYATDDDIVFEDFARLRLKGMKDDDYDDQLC

Row | Compound | Emax [1] | hS1P1 cAMP pEC50 [1] | Emax [2] | hS1P1 B-arrestin2 pEC50 [2]
1 | CC(C)CCn1nnc2cc(-c3nc(-c4ccc(C(F)(F)F)c(F)c4)no3)ccc21 [Compound 122, 5-{3-[3-fluoro-4-(trifluoromethyl)phenyl]-1,2,4-oxadiazol-5-yl}-1-(3-methylbutyl)-1H-1,2,3-benzotriazole] | < 75% | <6.5 | < 75% | <5
2 | COc1cccc(-c2noc(-c3ccc4c(c3)nnn4C3CCCC3)n2)n1 [Compound 124, 1-cyclopentyl-5-[3-(6-methoxypyridin-2-yl)-1,2,4-oxadiazol-5-yl]-1H-1,2,3-benzotriazole] | < 75% | <6.5 | < 75% | <5
3 | CC(C)n1nnc2cc(-c3noc(C4CCC(F)(F)CC4)n3)ccc21 [Compound 125, 5-[5-(4,4-difluorocyclohexyl)-1,2,4-oxadiazol-3-yl]-1-(propan-2-yl)-1H-1,2,3-benzotriazole] | < 75% | <6.5 | < 75% | <5
4 | Cc1cc(C)cc(Cc2noc(-c3ccc4c(c3)nnn4C(C)C)n2)c1 [Compound 126, 5-{3-[(3,5-dimethylphenyl)methyl]-1,2,4-oxadiazol-5-yl}-1-(propan-2-yl)-1H-1,2,3-benzotriazole] | < 75% | <6.5 | < 75% | <5
5 | CC(C)n1nnc2cc(-c3noc(C4CCCCC4)n3)ccc21 [Compound 127, 5-(5-cyclohexyl-1,2,4-oxadiazol-3-yl)-1-(propan-2-yl)-1H-1,2,3-benzotriazole] | < 75% | <6.5 | < 75% | <5
6 | CC(C)n1nnc2cc(-c3nc(-c4ccc5nncn5c4)no3)ccc21 [Compound 128, 1-(propan-2-yl)-5-(3-{[1,2,4]triazolo[4,3-a]pyridin-6-yl}-1,2,4-oxadiazol-5-yl)-1H-1,2,3-benzotriazole] | < 75% | <6.5 | < 75% | <5
7 | COc1ccc(-c2noc(-c3ccc4c(c3)nnn4C(C)C)n2)c2ccccc12 [Compound 129, 5-[3-(4-methoxynaphthalen-1-yl)-1,2,4-oxadiazol-5-yl]-1-(propan-2-yl)-1H-1,2,3-benzotriazole] | < 75% | <6.5 | < 75% | <5
8 | COc1cccc(-c2nc(-c3ccc4c(c3)nnn4C3CCCC3)no2)c1 [Compound 130, 3-(1-cyclopentyl-1H-benzo[d][1,2,3]triazol-5-yl)-5-(3-methoxyphenyl)-1,2,4-oxadiazole] | < 75% | <6.5 | < 75% | <5
9 | CC(C)n1nnc2cc(-c3noc(-c4ccc(COc5ccccc5)cc4)n3)ccc21 [Compound 131, 3-(1-isopropyl-1H-benzo[d][1,2,3]triazol-5-yl)-5-(4-(phenoxymethyl)phenyl)-1,2,4-oxadiazole] | < 75% | <6.5 | < 75% | <5
10 | CC(C)n1nnc2cc(-c3nc(-c4ccccc4OC(F)(F)F)no3)ccc21 [Compound 132, 5-(1-isopropyl-1H-benzo[d][1,2,3]triazol-5-yl)-3-(2-(trifluoromethoxy)phenyl)-1,2,4-oxadiazole] | > 75% | >6.5 | > 75% | >5
11 | Cc1ncc(-c2nc(-c3ccc4c(c3)nnn4C(C)C)no2)nc1C [Compound 133, 5-(5,6-dimethylpyrazin-2-yl)-3-(1-isopropyl-1H-benzo[d][1,2,3]triazol-5-yl)-1,2,4-oxadiazole] | < 75% | <6.5 | < 75% | <5
12 | O=C(O)CCn1nnc2cc(-c3noc(-c4ccccc4Br)n3)ccc21 [Compound 134, 3-(5-(5-(2-bromophenyl)-1,2,4-oxadiazol-3-yl)-1H-benzo[d][1,2,3]triazol-1-yl)propanoic acid] | < 75% | <6.5 | < 75% | <5
13 | CCc1ncc(-c2noc(-c3ccc4c(c3)nnn4C(C)C)n2)cn1 [Compound 135, 5-[3-(2-ethylpyrimidin-5-yl)-1,2,4-oxadiazol-5-yl]-1-(propan-2-yl)-1H-1,2,3-benzotriazole] | < 75% | <6.5 | < 75% | <5
14 | COc1cc(C)c(-c2noc(-c3ccc4c(c3)nnn4C(C)C)n2)c(OC)c1 [Compound 136, 5-[3-(2,4-dimethoxy-6-methylphenyl)-1,2,4-oxadiazol-5-yl]-1-(propan-2-yl)-1H-1,2,3-benzotriazole] | < 75% | <6.5 | < 75% | <5
15 | CCC1(CC)CC(=O)c2cc(-c3nsc(-c4cccnc4)n3)ccc2O1 [Compound 137, 2,2-diethyl-6-(5-(pyridin-3-yl)-1,2,4-thiadiazol-3-yl)chroman-4-one] | > 75% | >6.5 | > 75% | <5
16 | COc1ccccc1-c1nc(-c2ccc3c(c2)nnn3C(C)C)ns1 [Compound 138, 5-[5-(2-methoxyphenyl)-1,2,4-thiadiazol-3-yl]-1-(propan-2-yl)-1H-1,2,3-benzotriazole] | > 75% | >6.5 | > 75% | >5
17 | Cc1ccccc1-c1noc(-c2ccc3c(c2)nnn3CC(C)(C)O)n1 [Compound 139, 2-methyl-1-{5-[3-(2-methylphenyl)-1,2,4-oxadiazol-5-yl]-1H-1,2,3-benzotriazol-1-yl}propan-2-ol] | > 75% | >6.5 | > 75% | >5
18 | Cc1ccsc1-c1noc(-c2ccc3c(c2)nnn3CC(C)(C)O)n1 [Compound 140, 2-methyl-1-{5-[3-(3-methylthiophen-2-yl)-1,2,4-oxadiazol-5-yl]-1H-1,2,3-benzotriazol-1-yl}propan-2-ol] | > 75% | >6.5 | > 75% | >5
19 | CCC1(CC)CC(=O)c2cc(-c3nsc(-c4ccc5c(c4)nnn5C(C)C)n3)ccc2O1 [Compound 143, 2,2-diethyl-6-(5-(1-isopropyl-1H-benzo[d][1,2,3]triazol-5-yl)-1,2,4-thiadiazol-3-yl)chroman-4-one] | < 75% | <6.5 | < 75% | <5
20 | COc1ccccc1-c1nnc(-c2ccc3c(c2)nnn3C(C)C)s1 [Compound 144, 5-[5-(2-methoxyphenyl)-1,3,4-thiadiazol-2-yl]-1-(propan-2-yl)-1H-1,2,3-benzotriazole] | – | <6.5 | – | >5
21 | C=CCNc1ccc(-c2nc(-c3ccc4[nH]nnc4c3)no2)cc1C#N [Compound 145, 5-(3-(1H-benzo[d][1,2,3]triazol-5-yl)-1,2,4-oxadiazol-5-yl)-2-(allylamino)benzonitrile] | – | >6.5 | – | >5
22 | CCC1(CC)CC(=O)c2cc(-c3nc(-c4ccnc(F)c4)no3)ccc2O1 [Compound 146, 2,2-diethyl-6-(3-(2-fluoropyridin-4-yl)-1,2,4-oxadiazol-5-yl)chroman-4-one] | > 75% | >6.5 | < 75% | >5
23 | O=C1CC2(CCOCC2)Oc2ccc(-c3nc(-c4ccncc4)no3)cc21 [Compound 148, 6-[3-(pyridin-4-yl)-1,2,4-oxadiazol-5-yl]-3,4-dihydrospiro[1-benzopyran-2,4′-oxane]-4-one] | – | <6.5 | – | <5
24 | C=CCNc1ccc(-c2nc(-c3ccc4c(c3)nnn4C(C)C)no2)cc1C#N [Compound 150, 2-(allylamino)-5-(3-(1-isopropyl-1H-benzo[d][1,2,3]triazol-5-yl)-1,2,4-oxadiazol-5-yl)benzonitrile] | > 75% | >6.5 | > 75% | >5
